Results published in patent US20030224973A1, “Minimising body gain in insulin treatment” (priority 2002, published 2003).
Where two headings read alike, the source gives them in different places.

Key:
[1] = tested on: patients with type 1 diabetes; assay: Example 2 b): 6-month extension trial (12 months of treatment), insulin detemir vs NPH insulin, IAsp as meal related insulin; type: in vivo, human; conditions: for ANOVA of weight after 12 months of treatment, ITT, Mean (least square mean): IAsp as meal related insulin; for body weight at End of trial, Mean: End of trial (12 months)
Text: A 6-month extension of a multi-centre, open-label, asymmetrically randomised, parallel trial.
Patients who agreed to participate in the extension period continued treatment without interruption.
Following completion of the 6-month initial period, the extension period included 3 visits (0, 3 and 6 months after the start of the extension period).
The patients were advised to maintain their usual diet and daily activities.
All patients who completed the 6-month treatment period in the trial described under Section a) above and who were able and willing to participate in the extension period were included. Thus, the Section b) trial included 316 patients.

[2] = tested on: patients with type 1 diabetes; assay: Example 5: 16-week three arm trial, insulin detemir morning and pre-dinner, insulin detemir morning and bedtime, NPH insulin morning and bedtime, insulin aspart with meals; type: in vivo, human; conditions: for body weight at Baseline, Mean / body weight at End of trial, Mean: both detemir groups pooled; for body weight at End of trial, Mean: End of trial (16 weeks)
Method: All patients received insulin aspart (IAsp) with meals. The trial included a Screening Visit to assess patient eligibility and a Randomisation Visit (maximum 2 weeks after the Screening Visit). The following 16 week treatment period included 5 visits. In addition, patients were contacted every second day in the first two weeks (or longer if necessary) to ensure that optimal basal insulin dose was achieved fast and smoothly. A post-treatment telephone Follow-up was performed approximately one week after the last visit.
The study included 400 type 1 diabetic patients aged 18 or above with a BMI of ≦[…] and HbA1c<12%. The patients had had diabetes ≧12 months and had been treated on a basal/bolus regimen ≧2 months with a basal insulin requirement of ≧30% of the total daily insulin dose, and a total daily basal insulin dose below 100 IU. Patients were to have no major diabetic complications or other significant diseases.

[3] = tested on: patients with type 1 diabetes; assay: Example 3: 6-month open-label parallel trial, once daily insulin detemir vs NPH insulin, basal/bolus regimen with human soluble insulin; type: in vivo; conditions: for ANOVA of weight after 6 months of treatment, ITT, Mean (least square mean): once daily basal, human soluble insulin at meals; for body weight at End of trial, Mean: End of trial (6 months)
Text: All patients were on a basal/bolus insulin regimen with human soluble insulin as meal-related insulin. […] The trial included a screening visit to assess patient eligibility and a randomisation visit (maximum 3 weeks after the screening visit) followed by a six-month treatment period. In order to achieve glycaemic control, the investigator had contact with the patients at least every other working day during the first two weeks of treatment or as long as necessary to achieve glycaemic control. A post-treatment follow-up visit was performed 2-6 days after the last visit.
The study included 750 type 1 diabetic patients aged 18 years or above and having a HbAtc≦12%. […] The patients were to have no major diabetic complications or other significant diseases.

[4] = tested on: patients with type 2 diabetes; assay: Example 4: 6-month open parallel trial, insulin detemir vs NPH insulin once or twice daily, basal/bolus regimen with NovoRapid; type: in vivo, human; conditions: for ANOVA of weight after 6 months of treatment, ITT, Mean (least square mean): NovoRapid with meals; for body weight at End of trial, Mean: End of trial (6 months)
Text: Multicentre, open, randomised, parallel trial comprising a screening visit and a randomisation visit followed by a six month treatment period of basal/bolus therapy with either insulin detemir or NPH once or twice daily as needed. The patients received NovoRapid® with meals as bolus insulin throughout the trial.
The study included 506 type 2 diabetic patients aged 35 years or above with type 2 diabetes for ≧12 months treated with insulin or insulin analogues for at least 2 months, with a HbA1c≦12.0%, a basal insulin dose ≧30% of the total daily insulin dose and no other clinically relevant diseases were included in the trial.

[5] = tested on: patients with type 1 diabetes; conditions: for ANOVA of weight after 6 months of treatment, ITT, Mean (least square mean): type 1 diabetes, human soluble insulin as bolus, baseline weight as covariate
Text: Material and Methods: A total of 460 patients with no clinically significant diseases or diabetic complications were exposed (287 men and 173 women).
(§1) The analysis is based upon an ANOVA model with treatment and country as fixed effects and weight at baseline as covariate.

[6] = tested on: patients with type 1 diabetes; assay: Example 6: 16-week three-group trial, insulin detemir at 12-hour intervals, insulin detemir morning and bedtime, NPH morning and bedtime, insulin aspart at meals; type: in vivo, human; conditions: for average body weight gained: Morn_Bed groups; for body weight at Baseline, Mean / body weight at End of trial, Mean: both detemir groups pooled; for body weight at End of trial, Mean: End of trial (16 weeks)
Method: A 16 week, multi-centre, multi-national, open, randomised three-group parallel study comparing administration of insulin detemir at 12-hour intervals, insulin detemir morning and bedtime and NPH morning and bedtime in patients with type 1 diabetes
All patients received insulin aspart at meals. The trial included a Screening Visit to assess patient's eligibility and a Randomisation Visit, followed by a treatment period 16 of weeks. A post-treatment follow-up Visit was carried out approximately 1 week after the last visit.
The study included 409 type 1 diabetic patients aged 18 or above and HbA1c≦12%. The patients had had diabetes >12 months and had been treated on a basal (twice daily)/bolus regimen ≧2 months using an intermediate/long-acting insulin as a basal insulin and fast-acting human insulin or insulin analogue as bolus insulin.

[7] = tested on: patients with type 1 diabetes; conditions: for ANOVA of weight after 6 months of treatment, ITT, Mean (least square mean): insulin aspart as bolus; for HbA, levels: After 6 months; for plasma glucose at 07:00: nightly plasma glucose profile, p<0.05
Text: One of the secondary objectives of the study was to compare the regimens in terms of the safety profile, including the body weight of the patients.
The analysis is based upon an ANOVA model with treatment as fixed effect and weight at baseline as covariate.

[8] = tested on: adult patients with type 1 diabetes; assay: Example 1 b): 6-month extension trial (12 months of treatment), insulin detemir vs NPH insulin, human soluble insulin as meal related insulin; conditions: for ANOVA of weight after 12 months of treatment, ITT, Mean (least square mean): human soluble insulin as meal related insulin; for body weight at End of trial, Mean: End of trial (12 months)
Text: (§2) All patients were on a basal (twice-daily)-bolus regimen with human soluble insulin as meal related insulin:
as §1

[9] = tested on: adult patients with type 1 diabetes; conditions: in vivo
Text: as §2, §1

[10] = 16 weeks, Morn_Bed (morning and bedtime)
[11] = 12 months, difference between treatments
[12] = 12 months, not statistically significant
[13] = 6 months, difference between treatments

## NPH insulin: comparator basal insulin in the trials [reference compound]
[1]; 12 months
  average body weight gained during the trial: 1.2 kg
  ANOVA of weight after 12 months of treatment, ITT, Mean (least square mean): 72.8 kg
[1]
  body weight at Baseline, Mean: 71.5 kg
  body weight at End of trial, Mean: 72.7 kg
[2]; [10]
  ANOVA of Weight after 16 Weeks of Treatment, Adjusted for Change in HbA1c, ITT, Mean (least square mean): 76.40 kg
[2]
  body weight at Baseline, Mean: 74.5 kg
  body weight at End of trial, Mean: 75.3 kg
[3]; 6 months
  average body weight gained during the trial: 0.4 kg
  ANOVA of weight after 6 months of treatment, ITT, Mean (least square mean): 76.7 kg
[3]
  body weight at Baseline, Mean: 76.1 kg
  body weight at End of trial, Mean: 76.5 kg
[4]; 6 months
  increase of mean body weight: 1.3 kg
  ANOVA of weight after 6 months of treatment, ITT, Mean (least square mean): 88.6 kg
[4]
  body weight at Baseline, Mean: 89.7 kg
  body weight at End of trial, Mean: 91.0 kg
[5]; 6 months
  average body weight gained during the trial: 0.7 kg
  ANOVA of weight after 6 months of treatment, ITT, Mean (least square mean): 76.5 kg
[6]; [10]
  ANOVA of Weight after 16 Weeks of Treatment, Adjusted for Change in HbA1c, ITT, Mean (least square mean): 76.04 kg
[6]; 16 weeks
  average body weight gained: 0.7 kg
[6]
  body weight at Baseline, Mean: 74.5 kg
  body weight at End of trial, Mean: 75.3 kg
[7]; 6 months
  ANOVA of weight after 6 months of treatment, ITT, Mean (least square mean): 71.8 kg
[7]
  HbA, levels: 7.64%
  plasma glucose at 07:00: 9.5 mM/L
[7]; over 6 months
  average body weight gained: 0.7 kg
[8]; 12 months
  ANOVA of weight after 12 months of treatment, ITT, Mean (least square mean): 76.9 kg
[8]; 12 months, statistically significant
  weight gain: 1.4 kg
[8]
  body weight at Baseline, Mean: 75.8 kg
  body weight at End of trial, Mean: 77.2 kg
[8]; during 12 months
  proportion of patients with serious adverse events: 13.4%

## N^εB29-tetradecanoyl des(B30) human insulin [Insulin detemir]
[1]; 12 months
  ANOVA of weight after 12 months of treatment, ITT, Mean (least square mean): 71.5 kg
[1]; [11]
  ANOVA of weight after 12 months, insulin detemir − NPH, Mean: -1.34 kg
[1]; [12]
  average body weight lost during the trial: 0.1 kg
[1]
  body weight at Baseline, Mean: 71.4 kg
  body weight at End of trial, Mean: 71.3 kg
[1]; after 12 months, statistically significant
  difference in body weight between the groups: 1.3 kg
[2]; 16 weeks
  Weight, Pairwise Comparison, Mean Difference Detemir Morn_Bed - NPH Morn_Bed: -0.6 kg
  Weight, Pairwise Comparison, Mean Difference Detemir Morn_Dinner - Detemir Morn_Bed: -0.7 kg
  Weight, Pairwise Comparison, Mean Difference Detemir Morn_Dinner - NPH Morn_Bed: -1.3 kg
[2]; [10]
  ANOVA of Weight after 16 Weeks of Treatment, Adjusted for Change in HbA1c, ITT, Mean (least square mean): 75.81 kg
[2]; 16 weeks, Morn_Dinner (morning and pre-dinner)
  ANOVA of Weight after 16 Weeks of Treatment, Adjusted for Change in HbA1c, ITT, Mean (least square mean): 75.12 kg
[2]; 16 weeks, statistically significant
  Weight in both insulin detemir groups compared with NPH insulin: lower
[2]
  body weight at Baseline, Mean: 76.3 kg
  body weight at End of trial, Mean: 76.2 kg
[9]
  proportion of patients with serious adverse events: 9.1%
  risk of hypoglycemia during the night, relative risk (detemir/NPH): 0.71
[3]; 6 months
  average body weight lost during the trial: 0.2 kg
  ANOVA of weight after 6 months of treatment, ITT, Mean (least square mean): 76.2 kg
[3]; [13]
  ANOVA of weight after 6 months, insulin detemir − NPH, Mean: -0.52 kg
[3]
  body weight at Baseline, Mean: 76.5 kg
  body weight at End of trial, Mean: 76.3 kg
[4]; 6 months
  increase of mean body weight: 0.4 kg
  ANOVA of weight after 6 months of treatment, ITT, Mean (least square mean): 87.8 kg
[4]; [13]
  ANOVA of weight after 6 months, insulin detemir − NPH, Mean: -0.79 kg
[4]
  body weight at Baseline, Mean: 85.4 kg
  body weight at End of trial, Mean: 85.8 kg
[5]; 6 months
  9-point blood glucose profiles, insulin detemir and NPH: comparable
  average body weight lost during the trial: 0.5 kg
  ANOVA of weight after 6 months of treatment, ITT, Mean (least square mean): 75.4 kg
[5]; after 6 months, 95% CI [−0.05, 0.22]
  HbA1c absolute mean difference between treatments (insulin detemir-NPH): 0.08 % point
[5]; in vivo
  number of patients with hypoglycaemic episodes between the two treatments: not statistically significantly different
  safety profiles between the two treatments: comparable
[5]; not statistically significant, p=0.06
  intra-patient variation in fasting blood glucose (FBG) vs NPH: tendency towards lower intra-patient variation
[5]; p=0.78
  difference in FPG between treatments: No statistically significant difference
[6]; 16 weeks
  Weight, Pairwise Comparison, Mean Diff. Detemir Morn_Bed - NPH Morn_Bed: -0.6 kg
  average body weight gained: 0.2 kg
[6]; 16 weeks, 12 h_interval
  ANOVA of Weight after 16 Weeks of Treatment, Adjusted for Change in HbA1c, ITT, Mean (least square mean): 75.20 kg
[6]; 16 weeks, 12 h_interval group
  average change of body weight: maintained their weight
[6]; [10]
  ANOVA of Weight after 16 Weeks of Treatment, Adjusted for Change in HbA1c, ITT, Mean (least square mean): 75.41 kg
[6]; 16 weeks, first comparison, p=0.0061
  Weight, Pairwise Comparison, Mean Diff. Detemir 12 h_interval - NPH Morn_Bed: -0.8 kg
[6]; 16 weeks, third comparison as printed, p=0.4772
  Weight, Pairwise Comparison, Mean Diff. Detemir 12 h_interval - NPH Morn_Bed: -0.2 kg
[6]
  body weight at Baseline, Mean: 76.3 kg
  body weight at End of trial, Mean: 76.2 kg
[7]; 6 months
  ANOVA of weight after 6 months of treatment, ITT, Mean (least square mean): 70.9 kg
[7]; 6 months, not statistically significant, p=0.097
  Fasting plasma glucose difference, insulin detemir vs NPH insulin: -0.76 mM
[7]; 6 months, statistically significant
  difference in mean body weight between the groups: 1 kg
[7]
  HbA, levels: 7.60%
  plasma glucose at 07:00: 7.6 mM/L
[7]; at the end of the trial, p<0.001
  Body weight (baseline adjusted) vs NPH insulin: significantly lower
[7]; in vivo
  general safety profile between the two treatments: similar
[7]; over 6 months, not statistically significant
  average body weight lost: 0.2 kg
[7]; p=0.05
  shapes of the nightly plasma glucose profiles vs NPH insulin: smoother and more stable
[8]; [11]
  ANOVA of weight after 12 months, insulin detemir − NPH, Mean: -1.66 kg
[8]; 12 months
  ANOVA of weight after 12 months of treatment, ITT, Mean (least square mean): 75.2 kg
[8]; [12]
  weight loss: 0.3 kg
[8]
  body weight at Baseline, Mean: 76.6 kg
  body weight at End of trial, Mean: 76.3 kg
[8]; after 12 months of treatment
  HbA1c: 7.9%
[8]; after 12 months of treatment, p=0.002
  difference in body weight between groups: 1.7 kg
